In patent US20250228835A1, “PYRIDINYLOXYPYRIDINES AND RELATED COMPOUNDS AND THEIR USE IN TREATING MEDICAL CONDITIONS” (Rectify Pharmaceuticals, Inc., priority 2024, published 2025) one finds EC50 data, which are given here for 45 compounds.

One assay deals with T1, ABCB4 WT (Homo sapiens, UniProt P21439).
T1 construct: expressed in transfected cells
Nature of the assay: ABCB4 WT assay: HiBit protein expression. It counts as cell-based. To be noted: HEK-293 cells stably expressing HiBit-tagged ABCB4 WT; 24 h treatment; top concentration 30 μM; read-out: ABCB4 WT EC50, Emax. In outline:
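HEK-293 cells stably expressing HiBit-tagged human ABCB4 WT, treated 24 h at 37 °C with 11-dose 3-fold dilutions, top final 30 μM in 0.3% DMSO. HiBit lytic reagent luminescence read after 1 h at 25 °C; Emax and EC50 derived.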
(With HiBiT, luminescence reflects the tagged protein that the partner subunit can reach.)

Another assay addresses T2, ABCD2 WT (Homo sapiens, UniProt Q9UBJ2).
T2 construct: expressed in transfected cells
T2 sequence (Q9UBJ2 1-740): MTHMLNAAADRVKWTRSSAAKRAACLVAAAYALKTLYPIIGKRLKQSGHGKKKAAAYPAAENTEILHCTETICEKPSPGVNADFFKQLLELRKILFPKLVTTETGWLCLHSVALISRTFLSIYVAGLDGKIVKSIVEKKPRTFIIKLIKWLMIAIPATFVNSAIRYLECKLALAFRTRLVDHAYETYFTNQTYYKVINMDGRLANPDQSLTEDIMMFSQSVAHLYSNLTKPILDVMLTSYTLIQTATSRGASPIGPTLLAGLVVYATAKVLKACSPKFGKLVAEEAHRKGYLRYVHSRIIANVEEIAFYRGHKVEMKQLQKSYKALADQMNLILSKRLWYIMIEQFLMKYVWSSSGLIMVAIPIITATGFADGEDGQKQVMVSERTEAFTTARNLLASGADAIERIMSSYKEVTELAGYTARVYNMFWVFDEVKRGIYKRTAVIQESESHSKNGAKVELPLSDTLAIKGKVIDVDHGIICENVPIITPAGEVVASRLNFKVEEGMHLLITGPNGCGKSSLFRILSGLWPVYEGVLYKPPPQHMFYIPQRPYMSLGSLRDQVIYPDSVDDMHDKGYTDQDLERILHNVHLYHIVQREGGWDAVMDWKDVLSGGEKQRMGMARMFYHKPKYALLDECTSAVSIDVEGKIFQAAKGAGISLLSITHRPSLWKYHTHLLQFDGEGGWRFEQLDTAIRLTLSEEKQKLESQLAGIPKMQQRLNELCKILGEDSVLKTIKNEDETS
In words: D2 correction dose-response assay: ABCD2 WT HiBit protein expression. It counts as cell-based. To be noted: HEK-293/ABCD2 WT cells, 24 hours treatment, HiBit luminescence; class combines EC50 and Mean MaxAct (fold); read-out: ABCD2 WT EC50, Emax. The essentials:
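HEK-293 cells stably expressing HiBit-tagged human ABCD2 WT were treated with 11 doses (3-fold dilutions, top final 30 μM, 0.3% DMSO) for 24 h at 37 °C. Expression was measured by HiBit lytic luminescence after 1 h at 25 °C, giving EC50 and Emax.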

T1 sequence (P21439 whole entry): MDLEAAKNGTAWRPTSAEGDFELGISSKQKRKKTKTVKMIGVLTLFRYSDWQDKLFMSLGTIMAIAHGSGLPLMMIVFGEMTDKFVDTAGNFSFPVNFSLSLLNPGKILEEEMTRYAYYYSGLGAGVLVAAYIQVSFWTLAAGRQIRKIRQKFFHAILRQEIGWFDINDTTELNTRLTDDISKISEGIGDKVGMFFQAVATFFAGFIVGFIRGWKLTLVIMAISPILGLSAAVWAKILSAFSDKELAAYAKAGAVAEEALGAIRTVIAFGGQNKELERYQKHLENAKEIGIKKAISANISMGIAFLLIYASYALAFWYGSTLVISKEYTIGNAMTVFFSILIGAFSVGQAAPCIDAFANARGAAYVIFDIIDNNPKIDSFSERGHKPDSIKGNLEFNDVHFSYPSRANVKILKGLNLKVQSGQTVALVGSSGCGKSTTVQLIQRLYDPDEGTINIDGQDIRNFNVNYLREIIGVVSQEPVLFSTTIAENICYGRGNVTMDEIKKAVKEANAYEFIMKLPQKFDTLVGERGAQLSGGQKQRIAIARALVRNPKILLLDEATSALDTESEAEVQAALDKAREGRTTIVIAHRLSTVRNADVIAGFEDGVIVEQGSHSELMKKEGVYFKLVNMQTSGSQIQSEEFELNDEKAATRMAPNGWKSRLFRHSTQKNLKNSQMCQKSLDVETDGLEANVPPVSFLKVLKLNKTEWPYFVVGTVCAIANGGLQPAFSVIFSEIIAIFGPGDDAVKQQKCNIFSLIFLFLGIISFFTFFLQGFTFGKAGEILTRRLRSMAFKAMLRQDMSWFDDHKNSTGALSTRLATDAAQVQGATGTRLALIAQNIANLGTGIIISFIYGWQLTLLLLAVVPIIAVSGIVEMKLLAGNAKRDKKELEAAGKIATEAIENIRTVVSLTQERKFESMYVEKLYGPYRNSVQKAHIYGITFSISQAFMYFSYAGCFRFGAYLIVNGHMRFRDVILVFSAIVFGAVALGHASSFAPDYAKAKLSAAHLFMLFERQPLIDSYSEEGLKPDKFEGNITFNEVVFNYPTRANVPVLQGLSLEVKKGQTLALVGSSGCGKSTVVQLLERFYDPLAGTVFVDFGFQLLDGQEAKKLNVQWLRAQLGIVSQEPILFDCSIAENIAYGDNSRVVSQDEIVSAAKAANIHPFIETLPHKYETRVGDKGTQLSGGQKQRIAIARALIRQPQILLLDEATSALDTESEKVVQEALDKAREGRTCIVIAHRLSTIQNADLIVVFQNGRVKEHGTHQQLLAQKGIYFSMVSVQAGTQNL

As usually defined, the EC50 is the midpoint of the concentration-response curve. Consider `Cc1cc(C)c(Oc2nc(-c3cncc(C#N)c3)ccc2NS(C)(=O)=O)c(C2CC2)n1` [Compound I-268], for which the results for the EC50 on ABCB4 WT and on ABCD2 WT were < 1 µM and > 25 µM, respectively.

As to `Cc1cc(C2CC2)nc(C)c1Oc1nc(-c2cncc(C#N)c2)ccc1S(C)(=N)=O` (stereo not drawn) [Compound I-251], the EC50 at ABCB4 WT was ≥ 25 µM; at ABCD2 WT, > 25 µM.

Take `Cc1cc(C(F)F)nc(C2CC2)c1Oc1nc(-c2cncc(C#N)c2)ccc1S(=O)(=O)NC1CCOCC1` [Compound I-320]: the EC50 at ABCB4 WT is < 25 µM; at ABCD2 WT, > 25 µM.

Take `Cc1cc(C)c(Oc2nc(-n3cnc(C#N)c3)ccc2NS(C)(=O)=O)c(C)c1` [Compound I-273]: the EC50 at ABCB4 WT is < 25 µM; on ABCD2 WT, < 1 µM.

With `Cc1cc(C(F)F)cc(C2CC2)c1Oc1nc(-c2cncc(C#N)c2)ccc1S(=N)(=O)C1CC1` (stereo not drawn) [Compound I-319], the EC50 at ABCB4 WT and on ABCD2 WT was 1 to 10 µM throughout.

Take `Cc1cc(C)c(Oc2nc(-n3ccc(C#N)n3)ccc2NS(C)(=O)=O)c(C)c1` [Compound I-257]: the EC50 was ≥ 25 µM on ABCB4 WT and 1 to 10 µM at ABCD2 WT.

Regarding `Cc1cc(C)c(Oc2nc(N3CCC(C#N)C3)ccc2NS(C)(=O)=O)c(C)c1` (single isomer, unassigned) [Compound I-262], the EC50 on ABCB4 WT and on ABCD2 WT was 1 to 10 µM throughout.

Take `Cc1cc(C)c(Oc2nc(-c3cncc(S(C)(=O)=O)c3)ccc2NS(C)(=O)=O)c(C)c1` [Compound I-278]: the concentration for a half-maximal effect (EC50) was ≥ 25 µM at ABCB4 WT and 1 to 10 µM at ABCD2 WT.

For the compound `Cc1cc(C)c(Oc2nc(N3CCN(C(=O)C4CC4)CC3)ccc2NS(C)(=O)=O)c(C2CC2)n1` [Compound I-20], the concentration for a half-maximal effect (EC50) on ABCB4 WT was ≥ 25 µM; at ABCD2 WT, 10 to 25 µM.

For `Cc1cc(C)c(Oc2nc(-c3cn(C)nc3C)ccc2NS(C)(=O)=O)c(C)c1` [Compound I-283], the EC50 on ABCB4 WT was < 1 µM; at ABCD2 WT, 1 to 10 µM.

With `Cc1cc(C)c(Oc2nc(N3CCn4c(cnc4C)C3)ccc2NS(C)(=O)=O)c(C)c1` [Compound I-30], the EC50 on ABCB4 WT and at ABCD2 WT was 1 to 10 µM each time.

Take `Cc1cc(C)c(Oc2nc(N3CC4CC(C3)N4C(=O)C3CC3)ccc2NS(C)(=O)=O)c(C)c1` [Compound I-22]: the EC50 at ABCB4 WT and on ABCD2 WT was 1 to 10 µM each time.

Take `Cc1cc(C)c(Oc2nc(N3CC4CC3CN4C(=O)C3CC3)ccc2NS(C)(=O)=O)c(C)c1` (single isomer, unassigned) [Compound I-19]: the EC50 is ≥ 25 µM on ABCB4 WT and > 25 µM at ABCD2 WT.

For `CCS(=O)(=O)Nc1ccc(-c2cncc(C#N)c2)nc1Oc1c(C)cc(C)nc1C` [Compound I-247], the concentration for a half-maximal effect (EC50) on ABCB4 WT is < 1 µM; at ABCD2 WT, > 25 µM.

Regarding `Cc1cc(C)c(Oc2nc(-c3cncc(C#N)c3)ncc2NS(C)(=O)=O)c(C)n1` [Compound I-284], the EC50 at ABCB4 WT and on ABCD2 WT was < 1 µM throughout.

`Cc1cc(C2CC2)nc(C2CC2)c1Oc1nc(-c2cncc(C#N)c2)ccc1S(=O)(=O)NC1CCOCC1` [Compound I-322]: the EC50 on ABCB4 WT is < 25 µM; on ABCD2 WT it was > 25 µM.

Turning to `Cc1cc(C)c(Oc2nc(-c3cncc(C#N)c3)cnc2NS(C)(=O)=O)c(C)n1` [Compound I-259], the EC50 on ABCB4 WT was ≥ 25 µM; on ABCD2 WT it was 1 to 10 µM.

As to `Cc1cc(C)c(Oc2nc(-c3cc(Cl)cnc3C)ccc2NS(C)(=O)=O)c(C)n1` [Compound I-282], the figures for the EC50 on ABCB4 WT and on ABCD2 WT were ≥ 25 µM and 1 to 10 µM, respectively.

With `Cc1cc(C)c(Oc2nc(-c3cncc(C#N)c3)ccc2NS(C)(=O)=O)c(C)c1` [Compound I-39], the EC50 on ABCB4 WT and at ABCD2 WT was < 1 µM throughout.

On to `CNS(=O)(=O)c1ccc(-c2cncc(C#N)c2)nc1Oc1c(C)cc(C)cc1C` [Compound I-281], for which the concentration for a half-maximal effect (EC50) on ABCB4 WT and on ABCD2 WT was < 1 µM in each case.

As for `Cc1cc(C)c(Oc2nc(-c3cncc(Cl)c3)ccc2NS(C)(=O)=O)c(C2CC2)n1` [Compound I-40], the EC50 at ABCB4 WT and at ABCD2 WT was < 1 µM each time.

As for `Cc1cc(C2CC2)nc(C)c1Oc1nc(-c2cncc(Cl)c2)ccc1NS(C)(=O)=O` [Compound I-37], the EC50 on ABCB4 WT and on ABCD2 WT was < 1 µM throughout.

With `Cc1cc(C)c(Oc2nc(-c3ccc(C#N)nc3C)ccc2NS(C)(=O)=O)c(C)n1` [Compound I-269], the EC50 on ABCB4 WT is < 1 µM; at ABCD2 WT, 1 to 10 µM.

On to `Cc1cc(C)c(Oc2nc(-c3cncc(C#N)c3)ccc2S(N)(=O)=O)c(C)n1` [Compound I-258], for which the concentration giving a half-maximal response (EC50) at ABCB4 WT is < 25 µM; on ABCD2 WT it was 10 to 25 µM.

As for `Cc1cc(C)c(Oc2nc(-c3cncc(C#N)c3)ccc2NS(=O)(=O)C2CCC2)c(C)c1` [Compound I-253], the EC50 at ABCB4 WT and on ABCD2 WT was 1 to 10 µM in each case.

For `Cc1cc(C)c(Oc2nc(-n3cc(C#N)cn3)ccc2NS(C)(=O)=O)c(C)c1` [Compound I-274], the EC50 is < 25 µM at ABCB4 WT and 1 to 10 µM at ABCD2 WT.

For the compound `Cc1cc(C)c(Oc2nc(N3CCN(C(=O)C4CC4)CC3)ccc2S(N)(=O)=O)c(C)c1` [Compound I-285], the EC50 at ABCB4 WT was ≥ 25 µM; at ABCD2 WT it was 10 to 25 µM.

For `Cc1cc(C2CC2)nc(C)c1Oc1nc(-c2cncc(S(C)(=O)=O)c2)ccc1NS(C)(=O)=O` [Compound I-263], the EC50 at ABCB4 WT and on ABCD2 WT was 1 to 10 µM throughout.

With `Cc1cc(C)c(Oc2nc(-c3cncc(Cl)c3)ccc2NS(=O)(=O)C2COC2)c(C)c1` [Compound I-41], the figures for the EC50 on ABCB4 WT and on ABCD2 WT were ≥ 25 µM and < 1 µM, respectively.

As to `Cc1cc(C2CC2)nc(C)c1Oc1nc(-n2cc(C#N)cn2)ccc1NS(C)(=O)=O` [Compound I-256], the EC50 was < 1 µM on ABCB4 WT and 1 to 10 µM on ABCD2 WT.

For the compound `Cc1cc(C)c(Oc2nc(N3CCn4c(C)nnc4C3)ccc2NS(C)(=O)=O)c(C)c1` [Compound I-21], the EC50 at ABCB4 WT was < 25 µM; on ABCD2 WT it was > 25 µM.

Take `Cc1cc(C)c(Oc2nc(N3CCN(C(=O)C4COC4)CC3)ccc2NS(C)(=O)=O)c(C)c1` [Compound I-23]: the EC50 on ABCB4 WT and at ABCD2 WT was 10 to 25 µM each time.

As for `Cc1cc(C)c(Oc2nc(N3CCN(S(C)(=O)=O)CC3)ccc2NS(C)(=O)=O)c(C)c1` [Compound I-26], the EC50 on ABCB4 WT and on ABCD2 WT was 1 to 10 µM in each case.

Consider `Cc1cc(C2CC2)nc(C)c1Oc1nc(N2CCN(C(=O)C3CC3)CC2)ccc1NS(C)(=O)=O` [Compound I-28], for which the concentration giving a half-maximal response (EC50) on ABCB4 WT was 1 to 10 µM; on ABCD2 WT, > 25 µM.

Consider `Cc1cc(C)c(Oc2nc(-c3ccnc(C#N)c3)ccc2NS(C)(=O)=O)c(C)n1` [Compound I-239], for which the results for the EC50 at ABCB4 WT and at ABCD2 WT were < 25 µM and < 1 µM, respectively.

As for `Cc1cc(C)c(Oc2nc(-c3cncc(C#N)c3)ccc2NS(=O)(=O)C(C)C)c(C)n1` [Compound I-276], the concentration giving a half-maximal response (EC50) was < 1 µM at ABCB4 WT and > 25 µM at ABCD2 WT.

For the compound `Cc1cc(C)c(Oc2[nH]c(-c3cncc(C#N)c3)cc(=O)c2NS(C)(=O)=O)c(C)n1` [Compound I-325], the EC50 was < 25 µM at ABCB4 WT and 10 to 25 µM on ABCD2 WT.

Consider `Cc1cc(C)c(Oc2nc(N3CC4(CCN(C(=O)C5CC5)C4)C3)ccc2NS(C)(=O)=O)c(C)c1` [Compound I-31], for which the EC50 at ABCB4 WT was ≥ 25 µM; at ABCD2 WT it was > 25 µM.

Regarding `Cc1cc(C)c(Oc2nc(-c3cncc(C#N)c3)ccc2NS(=O)(=O)C2CCC2)c(C)n1` [Compound I-243], the EC50 was < 1 µM at ABCB4 WT and 10 to 25 µM at ABCD2 WT.

`Cc1cc(C)c(Oc2nc(N3CCC(C#N)CC3)ccc2NS(C)(=O)=O)c(C)c1` [Compound I-244]: the EC50 was ≥ 25 µM at ABCB4 WT and 10 to 25 µM on ABCD2 WT.

For `Cc1cc(C(F)(F)F)nc(C)c1Oc1nc(-c2cncc(C#N)c2)ccc1NS(C)(=O)=O` [Compound I-240], the EC50 on ABCB4 WT and at ABCD2 WT was < 1 µM each time.

With `Cc1cc(C)c(Oc2nc(-n3cnc(C#N)c3)ccc2N(C)S(C)(=O)=O)c(C)c1` [Compound I-272], the figures for the EC50 on ABCB4 WT and on ABCD2 WT were < 25 µM and > 25 µM, respectively.

For `Cc1cc(C)c(Oc2nc(-c3cncc(C#N)c3)ccc2S(=N)(=O)C2CC2)c(C)n1` (stereo not drawn) [Compound I-248], the EC50 is 1 to 10 µM on ABCB4 WT and > 25 µM at ABCD2 WT.

For the compound `Cc1cc(C)c(Oc2nc(-c3cncc(C#N)c3)ccc2S(C)(=N)=O)c(C)n1` (stereo not drawn) [Compound I-249], the EC50 is < 25 µM on ABCB4 WT and 1 to 10 µM on ABCD2 WT.

Regarding `Cc1cc(C)c(Oc2nc(-c3cncc(Cl)c3)cnc2NS(C)(=O)=O)c(C)c1` [Compound I-277], the EC50 at ABCB4 WT is ≥ 25 µM; on ABCD2 WT, < 1 µM.
